Results on 14 compounds are retold here after patent publication US11564923B2, “Compounds and pharmaceutical compositions thereof for the treatment of inflammatory disorders” (Galapagos NV, priority 2017, dated 2023).

In assay [1] the target is T1, Recombinant human TYK2 catalytic domain (amino acids 871-1187) (Homo sapiens, UniProt P29597).
T1 construct: catalytic domain (amino acids 871-1187)
T1 sequence (P29597 871-1187): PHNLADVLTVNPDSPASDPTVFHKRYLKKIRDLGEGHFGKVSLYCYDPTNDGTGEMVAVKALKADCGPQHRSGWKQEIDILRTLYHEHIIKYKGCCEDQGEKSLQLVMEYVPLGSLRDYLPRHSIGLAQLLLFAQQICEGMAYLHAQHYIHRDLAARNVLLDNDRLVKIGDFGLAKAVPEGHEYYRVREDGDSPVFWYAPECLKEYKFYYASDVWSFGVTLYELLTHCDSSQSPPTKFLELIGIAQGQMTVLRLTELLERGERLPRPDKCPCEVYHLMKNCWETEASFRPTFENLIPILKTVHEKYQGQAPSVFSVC
As to the kind of experiment: TYK2 ADPglo kinase assay. Also: 12 µM ATP. It is filed as biochemical. On the procedure: After 120 min at room temperature, reactions were stopped and the remaining ATP is depleted by adding 5 μL/well of ADP Glo Reagent (Promega, catalog number V912B). After 40 min at room temperature, 10 μl Kinase Detection Reagent (Kinase Detection Substrate (Promega, catalog number V914B) dissolved in Kinase Detection Buffer (Promega, catalog number V913B)) is added to convert ADP to ATP and to measure this newly synthesized ATP in a luciferase/luciferin reaction. Readout is performed after 30 min incubation at room temperature using the Envision. Kinase activity is calculated by subtracting the relative light units (RLU) obtained in the presence of a positive control inhibitor (10 μM staurosporine) from the RLU obtained in the presence of vehicle. The ability of a test compound to inhibit this activity (or percentage inhibition) is determined as:
RLU test compound=RLU determined for sample with test compound present
RLU control=RLU determined for sample with positive control inhibitor
RLU vehicle=RLU determined in the presence of vehicle
Dose dilution series were prepared for the compounds enabling the testing of dose-response effects in the TYK2 assay and the calculation of the IC50 for the compound. Each compound is routinely tested at concentration of 20 μM followed by a 1/5 serial dilution, 10 points in a final concentration of 1% DMSO. […] The data are expressed as the average IC50 from the assays.
In general terms: ADP-Glo turns the ADP formed in a reaction into a luminescent signal.

In assay [2] the test system is IFNα activation of STAT1 in PBMC. As to the kind of experiment: IFNα activation of STAT1 in PBMC. It is filed as cell-based. The settings on record: Homo sapiens; IFNα activation of STAT1 in PBMC; average IC50; read-out: IFNα signaling inhibitory potency IC50. The method, boiled down:
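Human PBMC, with red cells lysed by NH4Cl, were pre-treated with compound for 30 min at 37 °C and 5% CO2. They were then stimulated for 30 min with recombinant human IFNα at 5 ng/mL final.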

The subject of assay [3] is IL-12 activation of STAT4 in NK-92 cells. Description: IL-12 activation of STAT4 in NK-92 cells using AphaLISA SureFire technology. In kind it is cell-based. As to conditions: Homo sapiens, NK92; IL-12 activation of STAT4 in NK-92 cells, AlphaLISA SureFire; average IC50; read-out: IL12 pSTAT4 IC50. The method, boiled down:
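NK-92 cells, starved of rhIL-2 overnight, were stimulated with rhIL-12 for 30 min at 37 °C with test compounds, then lysed. Phospho-STAT4 (Tyr693) was read by AlphaLISA SureFire. Percent inhibition versus the vehicle-plus-trigger signal was fitted by sigmoidal nonlinear regression to give IC50, averaged over experiments.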
(Bead proximity is the source of the signal in Alpha formats.)

Assay [4] has as its target T2, Recombinant human JAK1 (catalytic domain, amino acids 866-1154) (Homo sapiens, UniProt P23458).
T2 construct: catalytic domain, amino acids 866-1154
Description: JAK1 inhibition assay. The settings on record: read-out: JAK1 potency IC50. In kind it is biochemical.

In assay [5] the target is T3, Recombinant human JAK2 (catalytic domain, amino acids 808-1132) (Homo sapiens, UniProt O60674).
T3 construct: catalytic domain, amino acids 808-1132
T3 sequence (O60674 808-1132): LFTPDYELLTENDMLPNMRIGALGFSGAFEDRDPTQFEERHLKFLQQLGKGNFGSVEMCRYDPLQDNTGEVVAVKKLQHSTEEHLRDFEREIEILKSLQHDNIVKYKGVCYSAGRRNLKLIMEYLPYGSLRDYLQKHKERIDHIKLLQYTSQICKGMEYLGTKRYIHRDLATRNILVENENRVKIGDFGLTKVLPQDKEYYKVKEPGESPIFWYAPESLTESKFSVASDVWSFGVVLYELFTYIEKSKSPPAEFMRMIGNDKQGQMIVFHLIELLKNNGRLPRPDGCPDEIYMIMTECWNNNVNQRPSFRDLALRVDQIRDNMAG
Description: JAK2 inhibition assay. Also: 0.7 µM ATP. It is filed as biochemical. The settings on record: read-out: JAK2 potency IC50.

Assay [6] deals with Recombinant human JAK3 catalytic domain (amino acids 781-1124) (Homo sapiens, UniProt P52333). As to the kind of experiment: JAK3 inhibition assay. In kind it is biochemical. In a few lines: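 Radiometric kinase reaction run 45 min at 30° C., stopped with phosphoric acid; activity as vehicle cpm minus 10 μM staurosporine cpm.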
Sequence of Recombinant human JAK3 catalytic domain (amino acids 781-1124) (P52333 781-1124): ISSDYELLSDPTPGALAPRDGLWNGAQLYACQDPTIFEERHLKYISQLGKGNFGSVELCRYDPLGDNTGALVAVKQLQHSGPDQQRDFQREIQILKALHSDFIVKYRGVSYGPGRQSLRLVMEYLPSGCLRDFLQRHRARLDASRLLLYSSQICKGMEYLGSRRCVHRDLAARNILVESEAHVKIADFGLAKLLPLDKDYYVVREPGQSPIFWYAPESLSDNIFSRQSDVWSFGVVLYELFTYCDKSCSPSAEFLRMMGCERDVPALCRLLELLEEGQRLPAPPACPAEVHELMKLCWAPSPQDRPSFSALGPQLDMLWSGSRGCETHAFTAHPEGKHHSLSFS
Assay [7] addresses T1, Recombinant human TYK2 catalytic domain (amino acids 871-1187). Description: TYK2 radioactive assay polyGT substrate. Also: 0.1 µM ATP. In kind it is biochemical. In a few lines:
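Reaction at 30° C. for 120 min, ended with 150 mM phosphoric acid, washed, counted; percent inhibition scaled between vehicle and 10 μM staurosporine cpm.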

The test system of assay [8] is IL-12 activation of STAT4 in NK-92 cells. As to the kind of experiment: IL-12 activation of STAT4 in NK-92 cells using MSD as readout. As to conditions: Homo sapiens, NK92; NK-92 cells, rhIL-12 25 ng/mL, MSD readout; read-out: IL12 pSTAT4 IC50. In kind it is cell-based. The protocol:
IL-2 is added freshly to the medium with each medium refreshment step. Cells are cultured in a humidified incubator at 37° C. 5% CO2.
NK-92 cells are pre-incubated with test compounds or vehicle for 30 min at 37° C. 5% CO2. […] NK-92 cells are triggered with rhIL-12 for 45 min at 37° C. 5% CO2.
After 45 min of cytokine stimulation the cells are lysed by addition of 50 μL ice-cold lysis buffer (supplemented with the MSD kit). Plates are frozen at −80° C. for minimal 1 hour to lyse the cells completely. After thawing the levels of phospho-STAT4 are quantified using the Phospho-STAT4 (Tyr693) kit (MSD, Catalogue number K150PAD-2) according to the manufacturer's instructions. Electroluminescent signal is measured on the MSD reader.
The percentage inhibition is calculated as: […]
RLU (trigger/veh): Relative lumescent signal determined in presence of vehicle and trigger
RLU (test compound): Relative luminescent signal determined in presence of test compounds)
PIN values are plotted for compounds tested in dose-response and IC50 values are derived using LIMS Software applying non-linear regression (sigmoidal) curve fitting. The data are expressed as the average IC50 from different experiments.

Broadly, the pIC50 is the negative decadic logarithm of the IC50, by convention in mol/L.

The structures appear in SMILES notation. pIC50: −log10 of the molar value.

T2 sequence (P23458 866-1154): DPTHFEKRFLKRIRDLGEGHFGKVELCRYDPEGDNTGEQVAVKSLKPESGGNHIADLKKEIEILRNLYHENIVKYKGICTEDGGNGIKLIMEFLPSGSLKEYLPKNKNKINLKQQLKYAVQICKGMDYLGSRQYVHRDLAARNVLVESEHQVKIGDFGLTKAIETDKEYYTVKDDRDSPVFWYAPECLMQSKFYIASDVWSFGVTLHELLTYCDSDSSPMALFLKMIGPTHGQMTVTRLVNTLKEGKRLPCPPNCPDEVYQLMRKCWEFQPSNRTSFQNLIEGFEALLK

For the compound `Cc1cc(C#N)ncc1Oc1cc(Nc2ccc(N3CCOC(C(C)C)C3)nn2)c2ncn(C)c2n1` (stereo in doubt) [Compound 173, 4-methyl-5-[3-methyl-7-[[6-[(2R)-2-propan-2-ylmorpholin-4-yl]pyridazin-3-yl]amino]imidazo[4,5-b]pyridin-5-yl]oxypyridine-2-carbonitrile], the pIC50 is 8.89 in assay [1], 6.94 in assay [2] and 7.48 in assay [3].
For `Cc1cc(C#N)ncc1Oc1cc(Nc2ccc(N3CCOC(C(C)C)C3)nn2)c2ncn(C)c2n1` (stereo in doubt) [Compound 177, 4-methyl-5-[3-methyl-7-[[6-[(2S)-2-propan-2-ylmorpholin-4-yl]pyridazin-3-yl]amino]imidazo[4,5-b]pyridin-5-yl]oxypyridine-2-carbonitrile], in that order: 8.92, 7.15 and 7.62.
Regarding `C[C@H](N(C)c1cc(Nc2cc(N)ncn2)c2ncn(C)c2n1)C(C)(C)C` [Compound 12, N7-(6-aminopyrimidin-4-yl)-N5,3-dimethyl-N5-[(1S)-1,2,2-trimethylpropyl]imidazo[4,5-b]pyridine-5,7-diamine], the negative-log IC50 (pIC50) was 7.57 in assay [4]; 8.52 in assay [5]; 7.44 in assay [6]; 8.85 in assay [7]; 7.60 in assay [2]; 6.27 in assay [8].
`CC1COCCC1N(C)c1cc(Nc2cc(N)ncn2)c2ncn(C)c2n1` (stereo not shown) [Compound 19, N7-(6-Amino-pyrimidin-4-yl)-3,N5-dimethyl-N5-(3-methyl-tetrahydro-pyran-4-yl)-3H-imidazo[4,5-b]pyridine-5,7-diamine]: the pIC50 in assay [4] was 7.09; in assay [5], 7.95; in assay [6] it was 6.64; in assay [7], 7.97; in assay [3], 7.14; in assay [8], 6.09.
`CCNC(=O)c1ccc(Nc2cc(Oc3cnc(C#N)cc3C)nc3c2ncn3C)nn1` [Compound 23, 6-[5-(6-Cyano-4-methyl-pyridin-3-yloxy)-3-methyl-3H-imidazo[4,5-b]pyridin-7-ylamino]-pyridazine-3-carboxylic acid ethylamide]: the pIC50 in assay [4] is 6.63; in assay [5], 7.18; in assay [6], 5.53; in assay [7], 7.74; in assay [2], 6.80; in assay [8], 6.61.
In the case of `Cc1cc(C#N)ncc1Oc1cc(Nc2ccc(C(=O)NCC(C)O)nn2)c2ncn(C)c2n1` (stereo not shown) [Compound 25, 6-[5-(6-Cyano-4-methyl-pyridin-3-yloxy)-3-methyl-3H-imidazo[4,5-b]pyridin-7-ylamino]-pyridazine-3-carboxylic acid (2-hydroxy-propyl)-amide], the negative-log IC50 (pIC50) in assay [4] was 6.61; in assay [5], 7.11; in assay [6] it was 5.64; in assay [7], 7.72; in assay [2] it was 6.70; in assay [8], 5.95.
On to `CCNS(=O)(=O)c1ccc(Nc2cc(Oc3cnc(C#N)cc3C)nc3c2ncn3C)cc1` [Compound 53, 4-[[5-[(6-cyano-4-methyl-3-pyridyl)oxy]-3-methyl-imidazo[4,5-b]pyridin-7-yl]amino]-N-ethyl-benzenesulfonamide], for which the pIC50 in assay [4] is 7.17; in assay [5], 7.14; in assay [6], 6.31; in assay [7], 8.04; in assay [2] it was 6.92; in assay [8] it was 6.39.
As to `Cc1cc(C#N)ncc1Oc1cc(Nc2ccc(S(C)(=O)=O)cn2)c2ncn(C)c2n1` [Compound 58, 4-methyl-5-[3-methyl-7-[(5-methylsulfonyl-2-pyridyl)amino]imidazo[4,5-b]pyridin-5-yl]oxy-pyridine-2-carbonitrile], the pIC50 was 7.01 in assay [4]; 7.45 in assay [5]; 5.96 in assay [6]; 8.13 in assay [7]; 7.06 in assay [2]; 6.23 in assay [8].
For the compound `Cc1cc(C#N)ncc1Oc1cc(Nc2ccc(C(F)(F)F)cn2)c2ncn(C)c2n1` [Compound 59, 4-methyl-5-[3-methyl-7-[[5-(trifluoromethyl)-2-pyridyl]amino]imidazo[4,5-b]pyridin-5-yl]oxy-pyridine-2-carbonitrile], the pIC50 in assay [4] was 6.34; in assay [5] it was 6.88; in assay [6], 5.42; in assay [7], 7.16; in assay [2], 6.39; in assay [8], 5.33.
Regarding `Cc1cc(C#N)ncc1Oc1cc(Nc2ccc(S(=O)(=O)N3CCOCC3)cc2)c2ncn(C)c2n1` [Compound 63], the pIC50 in assay [4] is 6.99; in assay [5], 7.16; in assay [6] it was 6.23; in assay [7] it was 8.12; in assay [2], 6.89; in assay [8], 5.94.
For `CCNC(=O)c1ccc(Nc2cc(NC(C3CC3)C(F)(F)F)nc3c2ncn3C)cn1` (stereo not shown) [Compound 91, 5-[[5-[(1-cyclopropyl-2,2,2-trifluoro-ethyl)amino]-3-methyl-imidazo[4,5-b]pyridin-7-yl]amino]-N-ethyl-pyridine-2-carboxamide], the pIC50 is 6.80 in assay [4]; 7.38 in assay [5]; 6.68 in assay [6]; 7.62 in assay [7]; 5.50 in assay [8].
Consider `Cc1cc(C#N)ncc1Oc1cc(Nc2ccc(N3CCO[C@@H](CO)C3)nn2)c2ncn(C)c2n1` [Compound 163, 5-[7-[[6-[(2R)-2-(hydroxymethyl)morpholin-4-yl]pyridazin-3-yl]amino]-3-methylimidazo[4,5-b]pyridin-5-yl]oxy-4-methylpyridine-2-carbonitrile], for which the pIC50 in assay [1] is 8.97.
Same read-out and setting: in the case of `Cc1cc(C#N)ncc1Oc1cc(Nc2ccc(N3CCO[C@H](CO)C3)nn2)c2ncn(C)c2n1` [Compound 165, 5-[7-[[6-[(2S)-2-(hydroxymethyl)morpholin-4-yl]pyridazin-3-yl]amino]-3-methylimidazo[4,5-b]pyridin-5-yl]oxy-4-methylpyridine-2-carbonitrile] it was 8.96.
In the case of `Cc1cc(C#N)ncc1Oc1cc(Nc2ccc(N3CCCOCC3)nn2)c2ncn(C)c2n1` [Compound 167, 4-methyl-5-[3-methyl-7-[[6-(1,4-oxazepan-4-yl)pyridazin-3-yl]amino]imidazo[4,5-b]pyridin-5-yl]oxypyridine-2-carbonitrile], the pIC50 in assay [1] is 8.59; in assay [2] it was 6.89; in assay [3] it was 7.06.
